Measurements from the supplement of paper PMC10627819.

Legend:
B. subtilis 168 = assay: Bliss interaction score (quartile over a dose matrix) (fitness difference); higher = more antagonism (negative = synergy)
Summary of the method: (§1)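 Quartiles summarise the Bliss score over technical, biological and donor/recipient replicates, where the score is observed minus expected fitness under a product model. Expected fitness uses single-drug values inferred from combination data. Fitness is OD595 at entry into stationary phase over the plate's robust no-drug mean, capped at 1.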

S. pneumoniae D39V [1] = assay: as above
Summary of the method: as §1

S. aureus DSM 20231 [2] = assay: as above
Summary of the method: as §1

S. aureus Newman [3] = assay: as above
Summary of the method: as §1

S. pneumoniae D39V [4] = assay: fitness (endpoint OD595 vs no drug) (fraction); higher = more growth
Summary of the method: (§2)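 In 384-well plates at 37 °C, cultures began at OD595 0.01 in 30 µl, with 55 µl used for S. pneumoniae. OD595 readings every 30 min for 14 h were corrected by the first reading. Fitness divides the stationary-phase transition optical density by the robust mean of no-drug control wells. The result is capped at 1.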

S. aureus DSM 20231 [5] = assay: as above
Summary of the method: as §2

S. aureus Newman [6] = assay: as above
Summary of the method: as §2
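Wherever Bliss interaction score (quartile over a dose matrix) is given: first quartile when negative (synergy) and third quartile when positive (antagonism).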

O=C(O[C@@H]1Cc2c(O)cc(O)cc2O[C@@H]1c1cc(O)c(O)c(O)c1)c1cc(O)c(O)c(O)c1 [EGCG] + CN[C@H](CC(C)C)C(=O)N[C@H]1C(=O)N[C@@H](CC(N)=O)C(=O)N[C@H]2C(=O)N[C@H]3C(=O)N[C@H](C(=O)N[C@H](C(=O)O)c4cc(O)cc(O)c4-c4cc3ccc4O)[C@H](O)c3ccc(c(Cl)c3)Oc3cc2cc(c3O[C@@H]2O[C@H](CO)[C@@H](O)[C@H](O)[C@H]2O[C@H]2C[C@](C)(N)[C@H](O)[C@H](C)O2)Oc2ccc(cc2Cl)[C@H]1O [Vancomycin]
Settings	Bliss interaction score
B. subtilis 168	0.0425
S. aureus DSM 20231 [2]	0.0881
S. aureus Newman [3]	-0.0625
S. pneumoniae D39V [1]	0.0478

fitness
Settings	first compound 12.5 µg/mL	first compound 25 µg/mL	first compound 50 µg/mL
S. aureus DSM 20231 [5], partner 0.1875 µg/mL	0.846	0.747	0.753
S. aureus DSM 20231 [5], partner 0.375 µg/mL	0.842	0.781	0.836
S. aureus DSM 20231 [5], partner 0.75 µg/mL	0.865	0.885	0.738
S. aureus Newman [6], partner 0.1875 µg/mL	0.754	0.782	–
S. aureus Newman [6], partner 0.375 µg/mL	0.757	0.766	0.846
S. aureus Newman [6], partner 0.75 µg/mL	0.789	0.776	0.778
S. pneumoniae D39V [4], partner 0.03125 µg/mL	0.907	0.913	0.931
S. pneumoniae D39V [4], partner 0.0625 µg/mL	0.887	0.901	0.959
S. pneumoniae D39V [4], partner 0.125 µg/mL	0.889	0.89	0.948
S. pneumoniae D39V [4], partner 0.25 µg/mL	0.317	–	0.397
S. pneumoniae D39V [4], partner 0.5 µg/mL	0.0543	0.0794	0.143

O=C(O[C@@H]1Cc2c(O)cc(O)cc2O[C@@H]1c1cc(O)c(O)c(O)c1)c1cc(O)c(O)c(O)c1 [EGCG] + Cn1nnc(-c2ccc(-c3ccc(N4C[C@H](CO)OC4=O)cc3F)cn2)n1 [Tedizolid]
Settings	Bliss interaction score
B. subtilis 168	0.0863
S. aureus DSM 20231 [2]	0.11
S. aureus Newman [3]	-0.0709
S. pneumoniae D39V [1]	-0.0687

fitness
Settings	partner 0.03125 µg/mL	partner 0.0625 µg/mL	partner 0.125 µg/mL	partner 0.25 µg/mL	partner 0.5 µg/mL
S. aureus DSM 20231 [5], first compound 12.5 µg/mL	–	0.865	0.734	0.401	–
S. aureus DSM 20231 [5], first compound 25 µg/mL	–	0.762	0.783	0.569	–
S. aureus DSM 20231 [5], first compound 50 µg/mL	–	0.805	0.714	0.326	–
S. aureus Newman [6], first compound 12.5 µg/mL	–	0.735	0.673	0.329	–
S. aureus Newman [6], first compound 25 µg/mL	–	0.783	0.679	–	–
S. aureus Newman [6], first compound 50 µg/mL	–	0.745	0.653	–	–
S. pneumoniae D39V [4], first compound 12.5 µg/mL	0.913	0.925	–	0.308	0.194
S. pneumoniae D39V [4], first compound 25 µg/mL	0.974	0.94	0.718	0.328	0.107
S. pneumoniae D39V [4], first compound 50 µg/mL	0.993	0.959	0.791	–	0.262

COc1c(N2C[C@@H]3CCCN[C@@H]3C2)c(F)cc2c(=O)c(C(=O)O)cn(C3CC3)c12 [Moxifloxacin] + CCCCCCCCCC(=O)N[C@@H]1[C@H]([C@@H]([C@H](O[C@H]1OC2=C3C=C4C=C2OC5=C(C=C(C=C5)[C@H]([C@H]6C(=O)N[C@@H](C7=C(C(=CC(=C7)O)OC8[C@H]([C@H]([C@@H]([C@H](O8)CO)O)O)O)C9=C(C=CC(=C9)[C@H](C(=O)N6)NC(=O)[C@@H]4NC(=O)[C@@H]1C2=CC(=CC(=C2)OC2=C(C=CC(=C2)[C@H](C(=O)N[C@H](CC2=CC(=C(O3)C=C2)Cl)C(=O)N1)N)O)O)O)C(=O)O)O[C@H]1[C@@H]([C@H]([C@@H]([C@H](O1)CO)O)O)NC(=O)C)Cl)CO)O)O [Teicoplanin]
main component drawn
Settings	Bliss interaction score
B. subtilis 168	-0.0201
S. aureus DSM 20231 [2]	0.0596
S. aureus Newman [3]	-0.0744
S. pneumoniae D39V [1]	-0.0767

fitness, main component drawn
Settings	first compound 0.0075 µg/mL	first compound 0.015 µg/mL	first compound 0.03 µg/mL
S. aureus DSM 20231 [5], partner 0.1562 µg/mL	0.912	0.852	0.748
S. aureus DSM 20231 [5], partner 0.3125 µg/mL	≥ 1	0.94	0.752
S. aureus DSM 20231 [5], partner 0.625 µg/mL	≥ 1	0.991	0.745
S. aureus Newman [6], partner 0.1562 µg/mL	0.773	0.597	0.0859
S. aureus Newman [6], partner 0.3125 µg/mL	0.797	0.577	0.0839
S. aureus Newman [6], partner 0.625 µg/mL	0.717	–	0.06

fitness, one replicate, main component drawn
Settings	partner 0.1562 µg/mL	partner 0.3125 µg/mL	partner 0.62 µg/mL	partner 0.625 µg/mL	partner 1.24 µg/mL	partner 2.48 µg/mL
S. aureus DSM 20231 [5], first compound 0.06 µg/mL	0.665	0.7	–	0.697	–	–
S. aureus DSM 20231 [5], first compound 0.12 µg/mL	0.497	0.468	–	0.513	–	–
S. aureus Newman [6], first compound 0.0075 µg/mL	–	–	0.679	–	0.608	0.337
S. aureus Newman [6], first compound 0.015 µg/mL	–	–	0.608	–	0.488	0.0713
S. aureus Newman [6], first compound 0.03 µg/mL	–	–	0.0881	–	0.0113	0.0176
